Earlier results as cited in publication doi:10.1101/2023.05.15.540887, “Comparative analysis of drug-like EP300/CREBBP acetyltransferase inhibitors” (bioRxiv, 2023).

Key:
Set-up in all cases: method as in ref 29 (a number printed in a supplementary file, which may have a reference list of its own: not looked up in the article's list)
T-47D = conditions: Breast T-47D; highest log conc -4.0; NCI-60 screen data; cited from earlier work
TK-10 = conditions: Renal TK-10; highest log conc -4.0; NCI-60 screen data; cited from earlier work
HCT-15 = conditions: Colon HCT-15; highest log conc -4.0; NCI-60 screen data; cited from earlier work
HCT-116 = conditions: Colon HCT-116; highest log conc -4.0; NCI-60 screen data; cited from earlier work
ACHN = conditions: Renal ACHN; highest log conc -4.0; NCI-60 screen data; cited from earlier work
SK-MEL-28 = conditions: Melanoma SK-MEL-28; highest log conc -4.0; NCI-60 screen data; cited from earlier work
SNB-75 = conditions: CNS SNB-75; highest log conc -4.0; NCI-60 screen data; cited from earlier work
HL-60(TB) = conditions: Leukemia HL-60(TB); highest log conc -4.0; NCI-60 screen data; cited from earlier work
CAKI-1 = conditions: Renal CAKI-1; highest log conc -4.0; NCI-60 screen data; cited from earlier work
NCI-H226 = conditions: Non-SmallCellLung NCI-H226; highest log conc -4.0; NCI-60 screen data; cited from earlier work
NCI-H522 = conditions: Non-SmallCellLung NCI-H522; highest log conc -4.0; NCI-60 screen data; cited from earlier work
SF-268 = conditions: CNS SF-268; highest log conc -4.0; NCI-60 screen data; cited from earlier work
U251 = conditions: CNS U251; highest log conc -4.0; NCI-60 screen data; cited from earlier work
UO-31 = conditions: Renal UO-31; highest log conc -4.0; NCI-60 screen data; cited from earlier work
NCI-H322M = conditions: Non-SmallCellLung NCI-H322M; highest log conc -4.0; NCI-60 screen data; cited from earlier work
OVCAR-8 = conditions: Ovarian OVCAR-8; highest log conc -4.0; NCI-60 screen data; cited from earlier work
MOLT-4 = conditions: Leukemia MOLT-4; highest log conc -4.0; NCI-60 screen data; cited from earlier work
OVCAR-3 = conditions: Ovarian OVCAR-3; highest log conc -4.0; NCI-60 screen data; cited from earlier work
SK-OV-3 = conditions: Ovarian SK-OV-3; highest log conc -4.0; NCI-60 screen data; cited from earlier work
HCC-2998 = conditions: Colon HCC-2998; highest log conc -4.0; NCI-60 screen data; cited from earlier work
COLO205 = conditions: Colon COLO205; highest log conc -4.0; NCI-60 screen data; cited from earlier work

SMILES	GI50 AVGDATA (T-47D)	GI50 AVGDATA (TK-10)	GI50 AVGDATA (HCT-15)	GI50 AVGDATA (HCT-116)	GI50 AVGDATA (ACHN)	GI50 AVGDATA (SK-MEL-28)	GI50 AVGDATA (SNB-75)	GI50 AVGDATA (HL-60(TB))	GI50 AVGDATA (CAKI-1)	GI50 AVGDATA (NCI-H226)	GI50 AVGDATA (NCI-H522)	GI50 AVGDATA (SF-268)	GI50 AVGDATA (U251)	GI50 AVGDATA (UO-31)	GI50 AVGDATA (NCI-H322M)	GI50 AVGDATA (OVCAR-8)	GI50 AVGDATA (MOLT-4)	GI50 AVGDATA (OVCAR-3)	GI50 AVGDATA (SK-OV-3)	GI50 AVGDATA (HCC-2998)	further results
COC(=O)N1c2ccc3c(nc(Cc4ccccc4)n3[C@H]3CCC[C@H](C(=O)O)C3)c2CC[C@@H]1C [FT-6876]	-5.5	-5.24	-4.79	-4.75	-4.77	-4.88	-6.37	-5.5	-5.74	-4.85	-4.95	-4.56	-4.77	-5.54	-4.82	-4.55	-4.84	-4.88	-4.77	-5.08	GI50 AVGDATA (COLO205): -5.31
Cc1sc2c(c1C)C(c1ccc(Cl)cc1)=N[C@@H](CC(=O)OC(C)(C)C)c1nnc(C)n1-2 [JQ-1]	-6.67	-7.23	-6.8	-6.51	-6.3	-6.4	-7.6	-7.52	-7.27	-4.99	-7.25	-5.33	-5.91	-7.52	-6.53	-6.21	-5.74	-6.3	-6.49	-6.54	GI50 AVGDATA (COLO205): -6.84
CO[C@H]1CC[C@H](n2c([C@@H]3CCCC(=O)N3c3ccc(F)c(F)c3)nc3cc(-c4c(C)noc4C)ccc32)CC1 [inobrodib]	-5.69	-5.61	-5.33	-5	-5.32	-4.93	-7.96	-6.07	-6.19	-5.37	-5.53	-4.83	-4.99	-5.79	-4.94	-4.99	-4.77	-4.98	-5.39	-5.38	GI50 AVGDATA (COLO205): -5.67
